Experimental data taken from ChEMBL document CHEMBL1201862, “PubChem BioAssay data set” (2004).
Active and inactive are the calls of the source.

Columns and labels:
[1] = molecular target: Polyadenylate-binding protein 1 (Homo sapiens, UniProt P11940); test: PABP inhibition in translation initiation, SAR follow-up (AID 435018); type: functional
[2] = molecular target: Eukaryotic translation initiation factor 4H (Homo sapiens, UniProt Q15056); test: inhibitors of translation initiation factor eIF4H – SAR follow-up (AID 435011); type: functional
[3] = molecular target: Voltage-gated N-type calcium channel alpha-1B subunit/Amyloid beta A4 precursor protein-binding family A member 1 (Homo sapiens, UniProt Q00975+Q02410); test: disruptors of Mint-PDZ/N-type channel peptide interaction – biochemical, HTRF, set 2, SAR follow-up (AID 434980); type: functional
[4] = molecular target: Melanin-concentrating hormone receptor 1 (Homo sapiens, UniProt Q99705); test: Late-stage fluorescence-based counterscreen for antagonists of the G-protein coupled receptor 7 (GPR7): cell-based dose response assay to identify antagonists of the melanin-concentrating hormone receptor 1 (MCHR1). [Related pubchem assays (depositor defined):AID1861, AID1880, AID1952, AID2148, AID2251, AID2257, AID485339]; type: functional;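 note: stimulated with 30 nM MCH peptide agonist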
Melanin-concentrating hormone receptor 1, sequence (Q99705 whole entry): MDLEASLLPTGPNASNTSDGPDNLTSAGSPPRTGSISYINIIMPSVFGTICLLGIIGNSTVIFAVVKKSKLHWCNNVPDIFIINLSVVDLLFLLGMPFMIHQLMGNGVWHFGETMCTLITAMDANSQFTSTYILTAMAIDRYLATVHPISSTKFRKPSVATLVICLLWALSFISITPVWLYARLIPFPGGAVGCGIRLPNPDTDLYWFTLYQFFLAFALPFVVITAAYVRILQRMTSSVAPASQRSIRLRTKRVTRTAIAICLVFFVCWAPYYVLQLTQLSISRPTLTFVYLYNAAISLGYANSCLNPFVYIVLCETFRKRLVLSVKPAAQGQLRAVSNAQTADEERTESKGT

[5] = molecular target: T1, Neuropeptides B/W receptor type 1 (Homo sapiens, UniProt P48145); test: human NPBW1 receptor blockade, IC50 – cell-based, fluorescence, dose response, late-stage follow-up (AID 463251); type: functional
T1 sequence (P48145 whole entry): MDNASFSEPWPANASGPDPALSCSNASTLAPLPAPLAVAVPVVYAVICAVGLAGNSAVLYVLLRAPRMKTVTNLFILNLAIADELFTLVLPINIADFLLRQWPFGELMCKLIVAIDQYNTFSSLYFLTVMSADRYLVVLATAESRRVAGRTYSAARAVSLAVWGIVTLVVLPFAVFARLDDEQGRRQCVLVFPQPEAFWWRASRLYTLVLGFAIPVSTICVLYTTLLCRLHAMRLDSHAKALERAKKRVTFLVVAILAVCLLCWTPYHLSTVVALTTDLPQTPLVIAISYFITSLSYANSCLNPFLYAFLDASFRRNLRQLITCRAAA

[6] = molecular target: Protein phosphatase methylesterase 1 (Homo sapiens, UniProt Q9Y570); test: endogenous PME-1 and serine hydrolase inhibition – cell lysate, mouse brain cytosol, FP-rhodamine, gel ABPP, selectivity assay for PME-1 inhibitor project, dose response, panel member PME-1 Assay Panel member description: Inhibition of endogenously expressed PME-1 (AID 2366)
Protein phosphatase methylesterase 1, sequence (Q9Y570 whole entry): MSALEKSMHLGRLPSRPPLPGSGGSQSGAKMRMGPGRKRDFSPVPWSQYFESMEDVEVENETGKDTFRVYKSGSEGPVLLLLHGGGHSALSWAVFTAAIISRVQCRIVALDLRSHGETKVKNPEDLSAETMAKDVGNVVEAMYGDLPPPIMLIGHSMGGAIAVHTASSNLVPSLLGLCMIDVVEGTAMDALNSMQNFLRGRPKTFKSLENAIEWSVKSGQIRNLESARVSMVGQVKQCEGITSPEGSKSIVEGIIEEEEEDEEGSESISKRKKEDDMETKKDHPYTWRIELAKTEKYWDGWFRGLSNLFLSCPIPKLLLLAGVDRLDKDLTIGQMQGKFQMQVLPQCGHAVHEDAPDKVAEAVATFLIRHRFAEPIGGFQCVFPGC

[7] = molecular target: Potassium voltage-gated channel subfamily KQT member 2 (Rattus norvegicus, UniProt O88943); test: potentiation of rat KCNQ2 current – cell-based, retigabine-insensitive compounds, dose response (AID 2654); type: functional
[8] = molecular target: G-protein coupled receptor 35 (Homo sapiens, UniProt Q9HC97); test: SAR analysis of Antagonists of the GPR35 Receptor using an Image-Based Assay - Set 5. [Related pubchem assays (depositor defined):AID2058, AID2079]; type: functional
G-protein coupled receptor 35, sequence (Q9HC97 whole entry): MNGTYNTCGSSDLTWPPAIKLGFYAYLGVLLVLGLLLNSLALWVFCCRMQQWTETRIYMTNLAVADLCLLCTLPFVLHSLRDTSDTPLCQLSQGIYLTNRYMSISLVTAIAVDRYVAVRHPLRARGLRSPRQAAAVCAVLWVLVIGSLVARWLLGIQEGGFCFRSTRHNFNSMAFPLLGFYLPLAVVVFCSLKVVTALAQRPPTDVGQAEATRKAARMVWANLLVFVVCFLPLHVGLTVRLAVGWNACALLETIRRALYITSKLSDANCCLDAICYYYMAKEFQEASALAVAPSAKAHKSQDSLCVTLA

[9] = molecular target: Luciferin 4-monooxygenase (Photinus pyralis, UniProt P08659); test: inhibition of purified Photinus pyralis luciferase – biochemical, luminescence, dose response (AID 1891)
Luciferin 4-monooxygenase, sequence (P08659 whole entry): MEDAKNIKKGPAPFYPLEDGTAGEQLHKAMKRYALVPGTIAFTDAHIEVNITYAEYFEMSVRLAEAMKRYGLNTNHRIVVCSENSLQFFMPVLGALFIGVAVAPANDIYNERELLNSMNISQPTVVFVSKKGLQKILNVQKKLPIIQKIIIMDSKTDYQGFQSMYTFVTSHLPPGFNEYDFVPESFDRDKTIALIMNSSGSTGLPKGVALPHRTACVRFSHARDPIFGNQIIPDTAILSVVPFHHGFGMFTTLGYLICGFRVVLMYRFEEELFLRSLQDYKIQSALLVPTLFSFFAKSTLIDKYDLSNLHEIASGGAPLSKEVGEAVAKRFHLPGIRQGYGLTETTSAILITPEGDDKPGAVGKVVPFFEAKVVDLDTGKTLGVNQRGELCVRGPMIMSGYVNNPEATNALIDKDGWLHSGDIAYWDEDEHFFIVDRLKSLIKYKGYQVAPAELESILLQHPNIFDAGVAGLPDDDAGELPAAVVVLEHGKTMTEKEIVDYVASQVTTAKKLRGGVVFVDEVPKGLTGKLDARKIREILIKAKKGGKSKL

[10] = molecular target: G-protein coupled receptor 55 (Homo sapiens, UniProt Q9Y2T6); test: SAR Analysis of Selective Antagonists of GPR55 using an Image-Based Assay - Set 3. [Related pubchem assays (depositor defined):AID2058, AID2079]; type: functional
G-protein coupled receptor 55, sequence (Q9Y2T6 whole entry): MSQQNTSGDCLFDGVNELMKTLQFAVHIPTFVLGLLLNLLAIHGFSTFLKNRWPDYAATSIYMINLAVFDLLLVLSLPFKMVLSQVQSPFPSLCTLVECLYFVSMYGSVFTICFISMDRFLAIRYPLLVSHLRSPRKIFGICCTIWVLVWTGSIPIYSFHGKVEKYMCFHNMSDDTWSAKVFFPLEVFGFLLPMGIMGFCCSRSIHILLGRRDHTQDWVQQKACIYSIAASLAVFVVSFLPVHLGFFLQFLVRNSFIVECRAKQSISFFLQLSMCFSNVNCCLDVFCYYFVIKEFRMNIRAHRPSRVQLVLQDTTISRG

[11] = Luminescence Cell-Based Dose Confirmation HTS to Identify Inhibitors of Platelet Dense Granule Release. [Related pubchem assays: 1663 (Primary HTS), 1678 (Summary of Project)]; type: functional
[12] = molecular target: G2/mitotic-specific cyclin-B1 (Homo sapiens, UniProt P14635); test: HeLa cell cycle G2/M accumulation – FACS, mechanism study for Wee1 degradation inhibitor project, late-stage follow-up, panel member Cyclin B Degradation (AID 2088)
G2/mitotic-specific cyclin-B1, sequence (P14635 whole entry): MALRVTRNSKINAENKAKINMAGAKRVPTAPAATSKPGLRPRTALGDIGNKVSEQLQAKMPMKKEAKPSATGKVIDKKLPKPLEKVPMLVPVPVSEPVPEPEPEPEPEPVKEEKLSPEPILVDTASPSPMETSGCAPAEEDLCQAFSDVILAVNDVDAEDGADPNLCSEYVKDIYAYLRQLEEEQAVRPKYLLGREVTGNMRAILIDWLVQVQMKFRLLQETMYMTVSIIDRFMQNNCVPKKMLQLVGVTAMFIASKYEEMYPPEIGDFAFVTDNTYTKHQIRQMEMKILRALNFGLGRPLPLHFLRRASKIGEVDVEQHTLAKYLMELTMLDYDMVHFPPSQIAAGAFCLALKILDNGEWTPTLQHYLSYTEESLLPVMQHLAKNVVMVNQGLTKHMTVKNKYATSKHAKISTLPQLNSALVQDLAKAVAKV

Wee1-like protein kinase = Wee1-like protein kinase (Homo sapiens, UniProt P30291); test: HeLa cell cycle G2/M accumulation – FACS, mechanism study for Wee1 degradation inhibitor project, late-stage follow-up, panel member Wee1 Degradation (AID 2088)
Wee1-like protein kinase, sequence (P30291 whole entry): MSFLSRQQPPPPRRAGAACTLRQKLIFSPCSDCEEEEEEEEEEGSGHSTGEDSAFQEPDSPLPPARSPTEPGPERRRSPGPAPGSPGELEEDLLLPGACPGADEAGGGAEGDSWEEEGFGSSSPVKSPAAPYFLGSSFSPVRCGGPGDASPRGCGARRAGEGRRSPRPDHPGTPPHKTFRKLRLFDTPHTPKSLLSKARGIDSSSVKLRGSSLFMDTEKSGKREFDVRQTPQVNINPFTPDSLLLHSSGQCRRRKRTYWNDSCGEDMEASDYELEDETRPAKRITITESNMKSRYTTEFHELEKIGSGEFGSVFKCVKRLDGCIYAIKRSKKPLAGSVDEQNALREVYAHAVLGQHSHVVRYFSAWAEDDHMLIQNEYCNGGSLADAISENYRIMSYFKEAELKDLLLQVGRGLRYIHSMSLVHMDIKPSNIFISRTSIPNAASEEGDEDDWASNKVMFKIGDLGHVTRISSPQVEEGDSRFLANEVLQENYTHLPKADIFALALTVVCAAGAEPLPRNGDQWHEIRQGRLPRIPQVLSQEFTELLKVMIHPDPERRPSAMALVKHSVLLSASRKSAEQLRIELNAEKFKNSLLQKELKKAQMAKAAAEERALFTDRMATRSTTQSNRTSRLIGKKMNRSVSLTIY

[13] = HEK-293T viability loss after treatment – luminescence, T-cell screen hits, cytotoxicity control for TCR NF-kB inhibitor project, dose response (AID 489026); type: functional, cell-based;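 note: cells exposed to compound about 14 hours before the viability readout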
[14] = molecular target: Cyclin-dependent kinase 5/CDK5 activator 1 (Homo sapiens, UniProt Q00535); test: blockade of human CDK5 activity – biochemical, cherry-picked samples, set 2, dose response (AID 504545)
Cyclin-dependent kinase 5/CDK5 activator 1, sequence (Q00535 whole entry): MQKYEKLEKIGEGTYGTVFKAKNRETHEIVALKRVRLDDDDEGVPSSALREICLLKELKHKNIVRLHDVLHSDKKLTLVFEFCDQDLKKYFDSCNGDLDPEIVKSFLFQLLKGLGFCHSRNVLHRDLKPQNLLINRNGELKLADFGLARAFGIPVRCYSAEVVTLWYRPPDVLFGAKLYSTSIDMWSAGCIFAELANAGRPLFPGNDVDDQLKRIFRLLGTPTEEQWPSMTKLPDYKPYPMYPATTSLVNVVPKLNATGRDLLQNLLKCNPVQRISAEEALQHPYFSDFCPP
Cyclin-dependent kinase 5/CDK5 activator 1, sequence (Q15078 whole entry, further chain): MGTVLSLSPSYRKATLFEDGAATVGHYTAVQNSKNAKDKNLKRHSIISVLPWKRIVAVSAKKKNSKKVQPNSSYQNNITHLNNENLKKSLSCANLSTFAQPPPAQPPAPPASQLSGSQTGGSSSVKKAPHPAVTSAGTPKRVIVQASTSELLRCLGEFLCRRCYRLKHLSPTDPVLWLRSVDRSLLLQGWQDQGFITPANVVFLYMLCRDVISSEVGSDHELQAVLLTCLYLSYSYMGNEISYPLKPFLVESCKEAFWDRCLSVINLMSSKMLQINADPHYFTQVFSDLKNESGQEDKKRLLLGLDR

[15] = ADP-Glo luciferase signal interference – biochemical, luminescence, cherry-picked samples, set 2, artefact control for CDK5 inhibitor project, dose response (AID 504546); type: functional, cell-based
Paired box protein Pax-8 = Paired box protein Pax-8 (Homo sapiens, UniProt Q06710); test: PAX8 transcriptional activity inhibition in RMG-I – RMG-I cells, luciferase, cherry-pick, dose response (AID 687027); type: functional, cell-based;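 note: luciferase reporter driven by Pax8 target thyroperoxidase promoter measured by SteadyGlo luminescence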
Paired box protein Pax-8, sequence (Q06710 whole entry): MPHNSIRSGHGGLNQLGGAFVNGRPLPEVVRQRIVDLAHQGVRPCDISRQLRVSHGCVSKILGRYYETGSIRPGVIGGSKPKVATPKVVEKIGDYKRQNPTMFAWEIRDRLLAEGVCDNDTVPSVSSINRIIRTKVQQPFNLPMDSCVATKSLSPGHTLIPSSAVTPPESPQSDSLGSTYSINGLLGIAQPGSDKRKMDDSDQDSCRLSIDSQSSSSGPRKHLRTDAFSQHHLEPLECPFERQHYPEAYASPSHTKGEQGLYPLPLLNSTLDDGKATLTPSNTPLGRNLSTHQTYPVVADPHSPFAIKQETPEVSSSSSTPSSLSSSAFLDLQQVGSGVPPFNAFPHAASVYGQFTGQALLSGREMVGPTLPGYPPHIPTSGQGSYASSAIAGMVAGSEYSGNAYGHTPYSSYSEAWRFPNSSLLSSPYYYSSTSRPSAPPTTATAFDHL

[16] = general cell-killing toxicity readout – plate reader, dry powder samples, cytotoxicity control for PAX8 inhibitor project, dose response (AID 743021); type: functional, cell-based
[17] = molecular target: T2, Heat shock factor protein 1 (Mus musculus, UniProt P38532); test: decrease of HSF1-responsive luciferase luminescence – cell-based, NIH3T3, dose retest, confirmation (AID 2382); type: functional;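 note: NIH3T3 fibroblasts with HSF1-driven luciferase reporter stressed by proteasome inhibitor MG132; luminescence from HSF1-driven luciferase expression after 8 hours of MG132 stress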
T2 sequence (P38532 whole entry): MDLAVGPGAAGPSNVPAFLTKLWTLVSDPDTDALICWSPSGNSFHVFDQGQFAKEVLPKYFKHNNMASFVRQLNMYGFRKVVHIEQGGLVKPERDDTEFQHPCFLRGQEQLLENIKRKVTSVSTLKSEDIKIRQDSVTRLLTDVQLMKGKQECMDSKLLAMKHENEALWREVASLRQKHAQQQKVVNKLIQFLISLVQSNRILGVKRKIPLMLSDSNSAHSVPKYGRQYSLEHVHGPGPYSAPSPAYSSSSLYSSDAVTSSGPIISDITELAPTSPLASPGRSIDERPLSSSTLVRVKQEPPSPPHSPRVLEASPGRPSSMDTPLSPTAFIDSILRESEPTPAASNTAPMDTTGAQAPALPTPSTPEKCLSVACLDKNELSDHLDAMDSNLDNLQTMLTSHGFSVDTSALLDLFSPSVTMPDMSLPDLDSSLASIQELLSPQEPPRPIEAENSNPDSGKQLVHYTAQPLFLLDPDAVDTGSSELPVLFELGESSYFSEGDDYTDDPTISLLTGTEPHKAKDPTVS

[18] = molecular target: Neurotensin receptor type 1 (Homo sapiens, UniProt P30989); type: functional;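 note: Image-based confirmatory dose-response assay measuring agonist activity at NTR1; NTR1-expressing U2OS osteosarcoma cells imaged for beta-arrestin GFP spot formation; agonist potency where compounds increase beta-arrestin recruitment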
Neurotensin receptor type 1, sequence (P30989 whole entry): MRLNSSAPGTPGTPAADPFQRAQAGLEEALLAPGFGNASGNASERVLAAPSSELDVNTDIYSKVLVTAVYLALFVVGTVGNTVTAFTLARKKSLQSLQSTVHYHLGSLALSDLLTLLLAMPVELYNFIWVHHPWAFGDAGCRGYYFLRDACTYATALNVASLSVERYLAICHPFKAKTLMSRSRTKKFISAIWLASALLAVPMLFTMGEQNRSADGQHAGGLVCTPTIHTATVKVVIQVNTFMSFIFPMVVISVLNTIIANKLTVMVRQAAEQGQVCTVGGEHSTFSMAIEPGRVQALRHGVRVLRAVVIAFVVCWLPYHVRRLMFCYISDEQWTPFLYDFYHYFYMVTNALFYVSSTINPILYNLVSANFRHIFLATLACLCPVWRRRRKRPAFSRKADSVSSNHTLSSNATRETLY

[19] = molecular target: T2, Heat shock factor protein 1; test: enhancement of HSF1-driven luciferase signal – cell-based, NIH3T3, luminescence, dose retest, confirmation (AID 435004); type: functional;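 note: stress induced by proteasome inhibitor MG132 added 30 min after compound; luciferase reporter driven by HSF1 response element in NIH3T3 cells; actives raise luminescence as potentiators of the MG132 stress response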

With `Cc1nnc(NC(=O)CSc2ccc(-c3ccco3)nn2)s1` the IC50 [1] was 64.1 µM (active) and the IC50 [2] was 6.17 µM (active).

With `O=C(c1cc(-c2ccco2)nc2ccccc12)N1CCC(N2CCCC2)CC1` the IC50 [3] was > 56.8 µM (inactive).

For `COc1nn(-c2cccc(C)c2)c(=O)c(Cl)c1Cl`, the IC50 [4] was 3.1 µM (active) and the IC50 [5] was 5.4 µM (active).

In the case of `CC(C)c1cc(C(C)C)c(S(=O)(=O)n2cccc2/C=C(\C#N)S(C)(=O)=O)c(C(C)C)c1`, the IC50 [6] was > 20 µM (inactive).

For `O=C(Nc1cccc(F)c1)Nc1cncc(F)c1`, the EC50 [7] was 6.32 µM (active).

With `COC(=O)c1cnn(-c2ccc(F)cc2F)c1/C=N/NC(N)=S` the IC50 [8] was > 32 µM (inactive), the EC50 [9] was > 112 µM (not active) and the IC50 [10] was > 32 µM (inactive). For the same molecule, the EC50 [11] was > 112 µM (not active).

In the case of `Cc1ccc(OCC(=O)Nc2cc(C)nn2-c2nc(C)cc(O)n2)cc1`, the EC50 [12] was > 49.7 µM (inactive) and the EC50 (Wee1-like protein kinase) was > 16.6 µM (active).

In the case of `COc1ccc(C(=O)NNC(=O)c2ccccn2)cc1`, the IC50 [13] was > 80 µM (inactive), the AC50 [14] was 8.77 µM (active) and the EC50 [9] was 0.98 µM (active). For the same molecule, the AC50 [15] was 14.2 µM (active), the AC50 (Paired box protein Pax-8) was 7.51 µM (active) and the EC50 [11] was 0.429 µM (active). For the same molecule, the AC50 [16] was 15.7 µM (active) and the EC50 [17] was 1.11 µM (active).

For `CC1(C)CC(=O)C(=Cc2cn(-c3ccccc3)nc2-c2ccccc2)C(=O)C1`, the EC50 [18] was 33.9 µM (inactive) and the EC50 [19] was 20.7 µM (active).
